The subject of test [1] is Echinochloa crus-galli. Briefly: Herbicidal activity against Echinochloa crus-galli (barnyard grass) using youngest fully expanded leaf assessed as inhibition of CO2 assimilation at 40 uM at 25 to 28 degC measured after 1 hr. The test is classed as functional.
Test [2] concerns Phaseolus vulgaris. Briefly: Herbicidal activity against Phaseolus vulgaris using youngest fully expanded leaf assessed as inhibition of stomatal conductance at 40 uM at 25 to 28 degC measured after 120 hr. Type of test: functional, organism-based.
The test system of test [3] is Phaseolus vulgaris. Briefly: Herbicidal activity against Phaseolus vulgaris using youngest fully expanded leaf assessed as inhibition of CO2 assimilation at 40 uM at 25 to 28 degC measured after 120 hr. Type of test: functional, organism-based.
For test [4], the system named is Echinochloa crus-galli. Briefly: Herbicidal activity against Echinochloa crus-galli (barnyard grass) using youngest fully expanded leaf assessed as inhibition of stomatal conductance at 40 uM at 25 to 28 degC measured after 20 hr. The test is classed as functional.
In test [5] the test system is Echinochloa crus-galli. Briefly: Herbicidal activity against Echinochloa crus-galli (barnyard grass) using youngest fully expanded leaf assessed as inhibition of CO2 assimilation at 40 uM at 25 to 28 degC measured after 24 hr. Type of test: functional.
In test [6] the test system is Echinochloa crus-galli. Briefly: Herbicidal activity against Echinochloa crus-galli (barnyard grass) using youngest fully expanded leaf assessed as inhibition of stomatal conductance at 40 uM at 25 to 28 degC measured after 1 hr. Type of test: functional.
Test [7] has as its target T1, Photosystem I iron-sulfur center (Panicum virgatum) (UniProt G3EFH9).
T1 sequence (whole entry): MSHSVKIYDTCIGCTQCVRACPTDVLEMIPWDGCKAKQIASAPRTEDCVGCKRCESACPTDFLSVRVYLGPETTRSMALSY
Briefly: Inhibition of PSI in Echinochloa crus-galli (barnyard grass) assessed as 50% compound concentration required to accept electrons.

For test [8], the system named is Physalis ixocarpa. Briefly: Herbicidal activity against Physalis ixocarpa assessed as reduction in dry biomass at 40 uM measured after 14 days treatment. Type of test: functional, organism-based.
The subject of test [9] is Echinochloa crus-galli. Briefly: Herbicidal activity against Echinochloa crus-galli (barnyard grass) using youngest fully expanded leaf assessed as intracellular CO2 concentration at 40 uM at 25 to 28 degC measured after 120 hr (reference value: 171.0 +/- 23.1 uL/L). Type of test: functional.
The subject of test [10] is Zea mays. Briefly: Herbicidal activity against Zea mays (maize) using youngest fully expanded leaf assessed as inhibition of CO2 assimilation at 40 uM at 25 to 28 degC measured after 120 hr (reference value: 8 +/- 0.4 umol/m'2/s). Type of test: functional.
Test [11] concerns the target T1, Photosystem I iron-sulfur center (Panicum virgatum). Briefly: Inhibition of PSI in Echinochloa crus-galli (barnyard grass) using dark-adapted leaf assessed as photosynthetic electron transport at 40 uM measured after 1 hr by chlorophyll fluorescence induction curve assay.
Test [12] deals with Photosystem II reaction center protein M (Pennisetum americanum) (UniProt Q672I5). Briefly: Inhibition of PSII in Echinochloa crus-galli (barnyard grass) using dark-adapted leaf assessed as photosynthetic electron transport at 40 uM measured after 1 hr by chlorophyll fluorescence induction curve assay.
Test [13] has as its system Phaseolus vulgaris. Briefly: Herbicidal activity against Phaseolus vulgaris using youngest fully expanded leaf assessed as inhibition of CO2 assimilation at 40 uM at 25 to 28 degC measured after 120 hr (reference value: 7.2 +/- 0.3 umol/m'2/s). The test is classed as functional.
Another test has as its system Fabaceae. Briefly: Induction of chlorophyll a fluorescence curve in Fabaceae (bean) leaf relative to control. The test is classed as functional, organism-based.
Test [14] has as its system Zea mays. Briefly: Herbicidal activity against Zea mays (maize) using youngest fully expanded leaf assessed as stomatal conductance at 40 uM at 25 to 28 degC measured after 120 hr (reference value: 103.9 +/- 6.5 mmol/m'2/s). The test is classed as functional.
Test [15] concerns Physalis ixocarpa. Briefly: Herbicidal activity against Physalis ixocarpa using youngest fully expanded leaf assessed as inhibition of CO2 assimilation at 40 uM at 25 to 28 degC measured after 120 hr (reference value: 6.3 +/- 0.6 umol/m'2/s). The test is classed as functional.
In test [16] the test system is Zea mays. Briefly: Herbicidal activity against Zea mays (maize) assessed as reduction in dry biomass at 40 uM measured after 14 days treatment. Type of test: functional. Conditions: 336 h.
In test [17] the test system is Echinochloa crus-galli. Briefly: Herbicidal activity against Echinochloa crus-galli (barnyard grass) using youngest fully expanded leaf assessed as stomatal conductance at 40 uM at 25 to 28 degC measured after 120 hr (reference value: 100.7 +/- 8.6 mmol/m'2/s). The test is classed as functional.
The test system of test [18] is Echinochloa crus-galli. Briefly: Herbicidal activity against Echinochloa crus-galli (barnyard grass) assessed as reduction in dry biomass at 40 uM measured after 14 days treatment. The test is classed as functional. The following applies: 336 h.
Test [19] addresses Photosystem II reaction center protein M (Pennisetum americanum) (UniProt Q672I5). Briefly: Inhibition of PSII in Echinochloa crus-galli (barnyard grass) using leaf assessed as inhibition of electron transport at 40 uM measured after 7 to 14 days.
In test [20] the test system is Echinochloa crus-galli. Briefly: Herbicidal activity against Echinochloa crus-galli (barnyard grass) assessed as electrolyte leakage at 40 uM measured after 5 days treatment (reference value: 100%). The test is classed as functional.
For test [21], the system named is Zea mays. Briefly: Herbicidal activity against Zea mays (maize) using youngest fully expanded leaf assessed as intracellular CO2 concentration at 40 uM at 25 to 28 degC measured after 120 hr (reference value: 196.1 +/- 4.9 uL/L). The test is classed as functional.
The subject of test [22] is Echinochloa crus-galli. Briefly: Herbicidal activity against Echinochloa crus-galli (barnyard grass) using youngest fully expanded leaf assessed as inhibition of CO2 assimilation at 40 uM at 25 to 28 degC measured after 120 hr (reference value: 10.7 +/- 1.1 umol/m'2/s). The test is classed as functional.
Test [23] deals with Physalis ixocarpa. Briefly: Herbicidal activity against Physalis ixocarpa using youngest fully expanded leaf assessed as intracellular CO2 concentration at 40 uM at 25 to 28 degC measured after 120 hr (reference value: 254.0 +/- 8.6 uL/L). The test is classed as functional.
In test [24] the test system is Echinochloa crus-galli. Briefly: Herbicidal activity against Echinochloa crus-galli (barnyard grass) assessed as chlorophyll loss at 40 uM measured after 5 days treatment (reference value: 0%). Type of test: functional.
In test [25] the test system is Echinochloa crus-galli. Briefly: Herbicidal activity against Echinochloa crus-galli (barnyard grass) using youngest fully expanded leaf assessed as inhibition of stomatal conductance at 40 uM at 25 to 28 degC measured after 120 hr. Type of test: functional, organism-based.
In test [26] the test system is Phaseolus vulgaris. Briefly: Herbicidal activity against Phaseolus vulgaris using youngest fully expanded leaf assessed as intracellular CO2 concentration at 40 uM at 25 to 28 degC measured after 120 hr (reference value: 256.0 +/- 5.8 uL/L). Type of test: functional.
For test [27], the system named is Physalis ixocarpa. Briefly: Herbicidal activity against Physalis ixocarpa using youngest fully expanded leaf assessed as stomatal conductance at 40 uM at 25 to 28 degC measured after 120 hr (reference value: 184.6 +/- 36.6 mmol/m'2/s). The test is classed as functional.
Test [28] relates to Phaseolus vulgaris. Briefly: Herbicidal activity against Phaseolus vulgaris using youngest fully expanded leaf assessed as stomatal conductance at 40 uM at 25 to 28 degC measured after 120 hr (reference value: 161.8 +/- 10 mmol/m'2/s). Type of test: functional.
The test system of another test is Solanum lycopersicum. Briefly: Induction of chlorophyll a fluorescence curve in green Solanum lycopersicum (tomato) leaf relative to control. Type of test: functional, organism-based.
Test [29] deals with Zea mays. Briefly: Induction of chlorophyll a fluorescence curve in Zea mays (maize) leaf relative to control. The test is classed as functional, organism-based.
Test [30] relates to Phaseolus vulgaris. Briefly: Herbicidal activity against Phaseolus vulgaris assessed as reduction in dry biomass at 40 uM measured after 14 days treatment. The test is classed as functional, organism-based.
For test [31], the system named is Echinochloa crus-galli. Briefly: Herbicidal activity against Echinochloa crus-galli (barnyard grass) using youngest fully expanded leaf assessed as inhibition of CO2 assimilation at 40 uM at 25 to 28 degC measured after 5 days. Type of test: functional, organism-based.

For orientation: inhibition means how much of the control response was suppressed.

Calls of active or inactive are those of the source. No cut-off for these calls is given here.

As for `COc1ccccc1NC1=CC(=O)C(Nc2ccccc2OC)=CC1=O`, the inhibition at 40 µM worked out at 80% with Echinochloa crus-galli [1], 62% in the test with Echinochloa crus-galli [4], 84% in the test on Echinochloa crus-galli [5] and 45% in the test with Echinochloa crus-galli [6]. Moreover, the inhibition entry in the test on Phaseolus vulgaris [2] and in the test with Phaseolus vulgaris [3] was “inactive” in each case.
As to `C[C@H](NC1=CC(=O)C(N[C@@H](C)[C@H](O)c2ccccc2)=CC1=O)[C@H](O)c1ccccc1`, the inhibition at 40 µM is 80% in the test with Echinochloa crus-galli [1], 62% in the test with Echinochloa crus-galli [4], 84% in the test with Echinochloa crus-galli [5] and 45% in the test with Echinochloa crus-galli [6]. For the same molecule, the inhibition result with Phaseolus vulgaris [2] and in the test with Phaseolus vulgaris [3] was “inactive” in each case.
`O=C1C=C(NCc2ccccc2)C(=O)C=C1NCc1ccccc1`: the inhibition at 40 µM in the test with Echinochloa crus-galli [1] stood at 80%; in the test with Zea mays [16] it was 60%; in the test on Echinochloa crus-galli [18] it was 76.5%; with Echinochloa crus-galli [4], 62%; in the test on Echinochloa crus-galli [5] it was 84%; in the test with Echinochloa crus-galli [6], 45%. Besides, the Activity came to 0.23 µM in [7]; 221 uL/L with Echinochloa crus-galli [9]; 7.2 micromol/m2/s in the test on Zea mays [10]; 7 micromol/m2/s in the test on Phaseolus vulgaris [13]; 82.4 mmol/m2/s in the test with Zea mays [14]; 5.6 micromol/m2/s in the test on Physalis ixocarpa [15]. Moreover, the Activity with Echinochloa crus-galli [17] is given as 75.3 mmol/m2/s; with Echinochloa crus-galli [20], 135.6%; in the test on Zea mays [21], 212 uL/L; in the test with Echinochloa crus-galli [22], 4.2 micromol/m2/s; with Physalis ixocarpa [23], 254.3 uL/L; in the test with Echinochloa crus-galli [24] it was 3.5%. The Activity in the test with Phaseolus vulgaris [26] was 254 uL/L; in the test with Physalis ixocarpa [27], 151.2 mmol/m2/s; in the test with Phaseolus vulgaris [28] it was 150 mmol/m2/s. In addition, the inhibition entry (in the test with Physalis ixocarpa [8]; with Phaseolus vulgaris [2]; in test [12]; in the test on Phaseolus vulgaris [3]; in the test with Phaseolus vulgaris [30]) was “inactive” in each case. Besides, the inhibition result (in test [11]; in the test on Echinochloa crus-galli [25]) was “Active” throughout. Further, the result in the test with Fabaceae, in the test with Solanum lycopersicum and with Zea mays [29] was inactive. Further, the inhibition in test [19] is 44%.
On to `O=C1C=C(Nc2ccccc2)C(=O)C=C1Nc1ccccc1`, for which the inhibition at 40 µM in the test on Echinochloa crus-galli [1] was 80%; with Echinochloa crus-galli [4] it was 62%; with Echinochloa crus-galli [5], 84%; in the test with Echinochloa crus-galli [6] it was 45%. Moreover, the inhibition entry in the test on Echinochloa crus-galli [31] is “Active”. Moreover, the inhibition result with Phaseolus vulgaris [2] and with Phaseolus vulgaris [3] was “inactive” throughout.
For the molecule `C[n+]1ccc(-c2cc[n+](C)cc2)cc1` [PARAQUAT], the Activity in [7] is 110 µM; in the test with Echinochloa crus-galli [20], 438.59%; with Echinochloa crus-galli [24], 44.3%.
Consider `CC(NC1=CC(=O)C(NC(C)c2ccccc2)=CC1=O)c1ccccc1` (configuration not stated), for which the inhibition at 40 µM was determined as 80% in the test on Echinochloa crus-galli [1], 62% in the test with Echinochloa crus-galli [4], 84% in the test on Echinochloa crus-galli [5] and 45% with Echinochloa crus-galli [6]. Besides, the inhibition result in the test with Phaseolus vulgaris [2] and with Phaseolus vulgaris [3] was “inactive” in each case.
Regarding `O=C1C=C(Nc2ccccc2O)C(=O)C=C1Nc1ccccc1O`, the inhibition at 40 µM came to 80% in the test with Echinochloa crus-galli [1], 62% with Echinochloa crus-galli [4], 84% with Echinochloa crus-galli [5] and 45% with Echinochloa crus-galli [6]. Besides, in the test on Echinochloa crus-galli [31], the inhibition result was “Active”. In addition, the inhibition entry in the test with Phaseolus vulgaris [2] and with Phaseolus vulgaris [3] was “inactive” throughout.

The values are drawn from ChEMBL document CHEMBL3045374, “Selective herbicide activity of 2,5-di(benzylamine)-p-benzoquinone against the monocot weed Echinochloa crusgalli. An in vivo analysis of photosynthesis and growth” (2005).
